melting point	Compound
185 to 188 °C	COc1ccc(-c2ccc(NC(=O)CCc3ccc(CN4CCCC4)cc3)cc2)cc1 [Example 6.1, N-(4′-methoxybiphenyl-4-yl)-3-(4-pyrrolidin-1-ylmethylphenyl)propionamide]
150 to 151 °C	CC1CCN(Cc2ccc(CCC(=O)Nc3ccc(-c4ccc(Cl)cc4)cc3)cc2)CC1 [Example 6.2, N-(4′-chlorobiphenyl-4-yl)-3-[4-(4-methylpiperidin-1-ylmethyl)phenyl]propionamide]
143 to 144 °C	COC1CCN(Cc2ccc(CCC(=O)Nc3ccc(-c4ccc(Cl)cc4)cc3)cc2)CC1 [Example 6.3, N-(4′-chlorobiphenyl-4-yl)-3-[4-(4-methoxypiperidin-1-ylmethyl)phenyl]propionamide]
193 to 194 °C	O=C(CCc1ccc(CN2CCOCC2)cc1)Nc1ccc(-c2ccc(Cl)cc2)cc1 [Example 6.4, N-(4′-chlorobiphenyl-4-yl)-3-(4-morpholin-4-ylmethylphenyl)propionamide]
240 to 241 °C	NC(=O)C1CCN(Cc2ccc(CCC(=O)Nc3ccc(-c4ccc(Cl)cc4)cc3)cc2)CC1 [Example 6.5, 1-{4-[2-(4′-chlorobiphenyl-4-ylcarbamoyl)ethyl]benzyl}piperidine-4-carboxylic acid amide]
185 to 186 °C	O=C(CCc1ccc(CN2CCC(CO)CC2)cc1)Nc1ccc(-c2ccc(Cl)cc2)cc1 [Example 6.6, N-(4′-chlorobiphenyl-4-yl)-3-[4-(4-hydroxymethylpiperidin-1-ylmethyl)phenyl]propionamide]
171 to 172 °C	O=C(CCc1ccc(CN2CC[C@H](O)C2)cc1)Nc1ccc(-c2ccc(Cl)cc2)cc1 [Example 6.7, N-(4′-chlorobiphenyl-4-yl)-3-[4-((S)-3-hydroxypyrrolidin-1-ylmethyl)phenyl]propionamide]
156 to 157 °C	O=C(CCc1ccc(CN2CCC[C@@H]2CO)cc1)Nc1ccc(-c2ccc(Cl)cc2)cc1 [Example 6.8, N-(4′-chlorobiphenyl-4-yl)-3-[4-((R)-2-hydroxymethylpyrrolidin-1-ylmethyl)phenyl]propionamide]
192 °C	CC1(O)CCN(Cc2ccc(CCC(=O)Nc3ccc(-c4ccc(Cl)cc4)cc3)cc2)CC1 [Example 6.9, N-(4′-chlorobiphenyl-4-yl)-3-[4-(4-hydroxy-4-methylpiperidin-1-ylmethyl)phenyl]propionamide]
183 to 184 °C	O=C(CCc1ccc(CN2CCCC2)cc1)Nc1ccc(-c2ccc(Cl)cc2)cc1 [Example 6.11, N-(4′-chlorobiphenyl-4-yl)-3-(4-pyrrolidin-1-ylmethylphenyl)propionamide]
167 to 173 °C	CN(Cc1ccc(CCC(=O)Nc2ccc(-c3ccc(Cl)cc3)cc2)cc1)C1CCOCC1 [Example 6.12, N-(4′-chlorobiphenyl-4-yl)-3-(4-{[methyl-(tetrahydropyran-4-yl)amino]methyl}phenyl)propionamide]
156 °C	CN(Cc1ccc(CCC(=O)Nc2ccc(-c3ccc(Cl)cc3)cc2)cc1)CC1CC1 [Example 6.13, N-(4′-chlorobiphenyl-4-yl)-3-{4-[(cyclopropylmethylmethylamino)methyl]phenyl}propionamide]

Further lines, the molecule ahead of its results:

Compound	melting point
CN(Cc1ccc(/C=C/C(=O)Nc2ccc(-c3ccc(Cl)cc3)cc2)cc1)C1CCOCC1 [Example 5.7, (E)-N-(4′-chlorobiphenyl-4-yl)-3-(4-{[methyl-(tetrahydropyran-4-yl)amino]methyl}phenyl)acrylamide]	196 to 197 °C
O=C(/C=C/c1ccc(CN2CCC(CO)CC2)cc1)Nc1ccc(-c2ccc(Cl)cc2)cc1 [Example 5.8, (E)-N-(4′-chlorobiphenyl-4-yl)-3-[4-(4-hydroxymethylpiperidin-1-ylmethyl)phenyl]acrylamide]	190 to 191 °C
O=C(/C=C/c1ccc(CN2CC[C@H](O)C2)cc1)Nc1ccc(-c2ccc(Cl)cc2)cc1 [Example 5.9, (E)-N-(4′-chlorobiphenyl-4-yl)-3-[4-((S)-3-hydroxypyrrolidin-1-ylmethyl)phenyl]acrylamide]	178 to 179 °C
O=C(/C=C/c1ccc(CN2CCCC2)cc1)Nc1ccc(-c2ccc(Cl)cc2)cc1 [Example 5.13, (E)-N-(4′-chlorobiphenyl-4-yl)-3-(4-pyrrolidin-1-ylmethylphenyl)acrylamide]	219 °C
COCCN(C)Cc1ccc(/C=C/C(=O)Nc2ccc(-c3ccc(Cl)cc3)cc2)cc1 [Example 5.14]	222 to 223 °C
CN(Cc1ccc(/C=C/C(=O)Nc2ccc(-c3ccc(Cl)cc3)cc2)cc1)CC1CC1 [Example 5.17, (E)-N-(4′-chlorobiphenyl-4-yl)-3-{4-[(cyclopropylmethylmethylamino)methyl]phenyl}acrylamide]	246 to 247 °C
O=C(/C=C/c1ccc(CNCC2CCCCC2)cc1)Nc1ccc(-c2ccc(Cl)cc2)cc1 [Example 5.21, (E)-N-(4′-chlorobiphenyl-4-yl)-3-{4-[(cyclohexylmethylamino)methyl]phenyl}acrylamide]	262 to 263 °C
CC1CN(Cc2ccc(/C=C/C(=O)Nc3ccc(-c4ccc(Cl)cc4)cc3)cc2)CC(C)O1 (stereo not drawn) [Example 5.23, (E)-N-(4′-chlorobiphenyl-4-yl)-3-[4-(2,6-dimethylmorpholin-4-ylmethyl)phenyl]acrylamide]	212 to 213 °C
O=C(/C=C/c1ccc(CN2CCC3(CCCC3)CC2)cc1)Nc1ccc(-c2ccc(Cl)cc2)cc1 [Example 5.25, (E)-3-[4-(8-azaspiro[4.5]dec-8-ylmethyl)phenyl]-N-(4′-chlorobiphenyl-4-yl)acrylamide]	250 °C
COCCN(Cc1ccc(/C=C/C(=O)Nc2ccc(-c3ccc(Cl)cc3)cc2)cc1)CC(C)(C)O [Example 5.27, (E)-N-(4′-chlorobiphenyl-4-yl)-3-(4-{[(2-hydroxy-2-methylpropyl)-(2-methoxyethyl)amino]methyl}phenyl)acrylamide]	125 to 126 °C
O=C(/C=C/c1ccc(CN2CCC(N3CCCCC3)C2)cc1)Nc1ccc(-c2ccc(Cl)cc2)cc1 (stereo not drawn) [Example 5.28, (E)-N-(4′-chlorobiphenyl-4-yl)-3-[4-(3-piperidin-1-ylpyrrolidin-1-ylmethyl)phenyl]acrylamide]	209 to 210 °C
CC1CCC(N(C)Cc2ccc(/C=C/C(=O)Nc3ccc(-c4ccc(Cl)cc4)cc3)cc2)CC1 (stereo not drawn) [Example 5.29, (E)-N-(4′-chlorobiphenyl-4-yl)-3-(4-{[methyl-(4-methylcyclohexyl)amino]methyl}phenyl)acrylamide]	227 to 258 °C
O=C(/C=C/c1ccc(CNC2CCCCC2)cc1)Nc1ccc(-c2ccc(Cl)cc2)cc1 [Example 5.33, (E)-N-(4′-chlorobiphenyl-4-yl)-3-(4-cyclohexylaminomethylphenyl)acrylamide]	247 to 248 °C
CN(Cc1ccc(/C=C/C(=O)Nc2ccc(-c3ccc(Cl)cc3)cc2)cc1)C1CCN(C(=O)OC(C)(C)C)CC1 [Example 5.35, tert-butyl 4-({-[(E)-2-(4′-chlorobiphenyl-4-ylcarbamoyl)vinyl]benzyl}methylamino)piperidine-1-carboxylate]	168 to 169 °C
O=C(/C=C/c1ccc(CN(CCO)C2CCCCC2)cc1)Nc1ccc(-c2ccc(Cl)cc2)cc1 [Example 5.38, (E)-N-(4′-chlorobiphenyl-4-yl)-3-(4-{[cyclohexyl-(2-hydroxyethyl)amino]methyl}phenyl)acrylamide]	178 to 179 °C

Reference: US7592373B2 (Boehringer Ingelheim International GmbH, priority 2003, dated 2009)
